For test [1], the system named is FDHC23S+AzoRo. The following applies: 1 mM NAD+; 50 mM phosphate pH 7; 25 °C; apparent; FDH part.
Test [2] has as its system FDHC23S+AzoRo. The following applies: 150 μM NADH; 50 μM FMN; 50 mM phosphate pH 7; 25 °C; apparent; AzoRo part.
The test system of test [3] is FDHC23S+AzoRo. To be noted: 150 μM NADH; 50 μM FMN; 50 mM phosphate pH 7; 25 °C; apparent; AzoRo part. The source holds these as a separate data set.

Read-outs that look alike come from different tables or passages of the source.

Regarding `O=CO` [Formate], the Km (usually the substrate concentration at which the rate is half of its maximum) in test [1] stood at 48900 ± 4880 µM.
In the case of `CN(C)c1ccc(/N=N/c2ccccc2C(=O)O)cc1` [compound 1, methyl red], in test [2], the Km was determined as 73.9 ± 47.5 µM.
As to `CC(=O)Nc1ccc(S(=O)(=O)O)c2cc(S(=O)(=O)O)c(N=Nc3ccc(N=Nc4ccc(S(=O)(=O)O)cc4)c4ccc(S(=O)(=O)O)cc34)c(O)c12` [compound 5, Brilliant Black BN], in test [3], the Km came to 6.01 ± 1.39 µM.

For the origin of these results see publication PMC9305538 (Chembiochem, 2022).
